Common to all, as to type: in vivo, Sprague-Dawley rat
One assay concerns aniline hydroxylase. The assay is described as follows: Aniline hydroxylase activity of hepatic microsomes (Experimental Example 1(2-2)). Particulars: 200 mg/kg. On the procedure:
(§1) Six groups of Sprague-Dawley rat weighing 190±30 g were administered with pyrazine(Groups 1 to 3) or the compound prepared in Example 1-1(Groups 4 to 6) in a dose of 200 mg/kg for 1, 2 or 3 days. After the hepatic microsomes were separated by following the same procedure as in the above (1), activity of p-nitrophenol hydrolase was measured according to the method of Koop(Dennis R. Koop, Hydroxylation p-nitrophenol by rabbit ethanol inducible cytochrome P-450 isozyme 3a, Molecular Pharmacol. 29, 399-404(1986)).
The same procedure as in the above (2-1) was carried out to measure the activity of aniline hydroxylase. The activity of aniline hydroxylase was measured according to the method of Mieyal(John J. Mieyal, Acceleration of the autooxidation of human oxyhemoglobin by aniline and its relation to hemoglobin-catalyzed aniline hydroxylation, J. Biol. Chem. 251, 3442-3446(1976)).
Thus, 1 mg of microsomes and 5 mM aniline were added to 0.6 ml of 0.1M potassium phosphate buffer(pH 6.8) to make the total volume of 0.9 ml. 1 mM NADPH was added to make the total volume of 1.0 ml and the resulting mixture was reacted at 37° C. After 10 minutes, 20% trichloroacetic acid was added to stop the reaction and the reaction mixture was centrifuged. To 1 ml of supernatant were added 0.1 ml of 5% phenol and 0.1 ml of 2.5N sodium carbonate, dissolved in 0.1N NaOH. The mixture was allowed to stand for 30 minutes to develop a color and the absorbance at 630 nm was measured at once. The enzyme activity was expressed in terms of mole concentration of 4-aminophenol, the product of reaction for 1 minute.

For assay [1], the system named is microsomal epoxide hydrolase (mEH). As to the kind of experiment: Western blot analysis for microsomal epoxide hydrolase (Experimental Example 3(1)). The note with it: 200 mg/kg i.p. for 1, 2 or 3 days; FIG. 6. On the procedure:
The hepatic microsomes were separated and subjected to SDS-polyacrylamide gel electrophoresis by following the same procedure as in the above Experimental Example 1(1). Thereafter, western blot analysis for microsomal epoxide hydrolase(mEH) was carried out as follows:
Streptavidine-horseradish peroxidase and 4-chloro-1-naphtol were added to the reaction mixture to develop a color.

For assay [2], the system named is N-nitrosodimethylamine demethylase. As to the kind of experiment: N-Nitrosodimethylamine demethylase activity of hepatic microsomes (Experimental Example 1(2-3)). Particulars: 200 mg/kg, 1 to 3 days, time-dependent. As for the experimental part:
as §1
The same procedure as in the above (2-1) was carried out to measure the activity of N-nitrosodimethyl demethylase. The activity of N-nitrosodimethyl demethylase was measured according to the method of Kaul and Novak(Kaul, L. L. and Novak, R. F., Induction of rabbit hepatic microsomal cytochrome P-450 by imidazole; enhanced metabolic activity and altered substrate specificity, Arch. Biochem. Biophys., 235, 470-481(1984)).
Thus, 10 mM N-Nitrosodimethylamine and 0.6 ml of 0.1M potassium phosphate buffer(pH 7.4) were added to 1 mg of microsomes, and 1 mM NADPH was added to make the total volume of 1 ml. After the mixture was reacted at 37° C. for 30 minutes, 20% trichloroacetic acid was added to stop the reaction and the reaction mixture was centrifuged. […] The mixture was allowed to stand at 37° C. for 45 minutes to develop a color and the absorbance at 412 nm was measured. […]

The test system of assay [3] is p-nitrophenol hydroxylase. As to the kind of experiment: p-Nitrophenol hydroxylase activity of hepatic microsomes (Experimental Example 1(2-1)). The note with it: 200 mg/kg. On the procedure: In order to examine the effect of the compound of the present invention on the activity of the enzymes involved in phase I reaction, the experiments were carried out as follows:
as §1
Thus, 1 mg of microsomes and 1mM p-nitrophenol were added to 0.6 ml of 0.1M potassium phosphate buffer(pH 6.8) to make the total volume of 0.9 ml. The resulting mixture was preliminarily reacted in a 37° C. incubator for 2 minutes and started to react while adding 1 mM NADPH(0.1 ml). After 3 minutes, 0.5 ml of 0.6N perchloric acid was added to develop a color and the absorbance at 546 nm was measured at once. The enzyme activity was expressed in terms of mole concentration of 4-nitrocatechol, the product of reaction for 1 minute.

The structures appear in SMILES notation.

As for `C=CCSc1cnccn1` [Example 1-1, 2-(2-propenylthio)pyrazine], the figures for the “decrease in activity of aniline hydroxylase compared to pyrazine groups” value in the assay with aniline hydroxylase (1 day), in the assay on aniline hydroxylase (2 days) and in the assay with aniline hydroxylase (3 days) were 57%, 80% and 88%, respectively. In assay [1], the “expression of mEH compared to control or pyrazine groups” value was “significant increase in the expression of mEH”. Besides, the “decrease in activity of N-nitrosodimethylamine demethylase compared to pyrazine groups” value in assay [2] was 49-73%. The “decrease in activity of p-nitrophenol hydrolase compared to pyrazine groups” value is 64% in assay [3] (1 day), 73% in assay [3] (2 days) and 82% in assay [3] (3 days).
